Laboratory results taken from patent publication US11787825B2 (priority 2021, dated 2023).
≈ marks a conversion by molar mass, not a printed value. Like-named read-outs stand apart in the source and are kept apart here.

What was measured:
physchem = details: 25 °C, thermodynamic from solid
[1] = 0.1N HCL, 1.0% DMSO, 24-hour incubation at ambient temperature, maximum theoretical compound concentration 100 μM
[2] = 1×PBS buffer (pH 7.4), 1.0% DMSO, 24-hour incubation at ambient temperature, maximum theoretical compound concentration 100 μM

| Structure (SMILES) | solubility (physchem; fassif) | pH 2 solubility [1] | pH 7 solubility [2] | solubility (physchem; fasted state simulated intestinal fluid (FaSSIF), fassif) | solubility (physchem; fed state simulated intestinal fluid (FeSSIF), fessif) | solubility (physchem; fessif) | pH 2 solubility (pH 2) | pH 7 solubility (pH 7.4) |
| --- | --- | --- | --- | --- | --- | --- | --- | --- |
| C[C@H](NC(=O)OCOP(=O)(O)O)C(=O)N(c1nn(CC(F)(F)F)c2c(-c3ccc(C#CC(C)(C)S(C)(=O)=O)nc3[C@H](Cc3cc(F)cc(F)c3)NC(=O)Cn3nc(C(F)(F)F)c4c3C(F)(F)[C@@H]3C[C@H]43)ccc(Cl)c12)S(C)(=O)=O [Compound 36, (phosphonooxy)methyl ((S)-1-(N-(4-chloro-7-(2-((S)-1-(2-((3bS,4aR)-5,5-difluoro-3-(trifluoromethyl)-3b,4,4a,5-tetrahydrocyclopropa[3,4]cyclopenta[1,2-c]pyrazol-1-yl)acetamido)-2-(3,5-difluorophenyl)ethyl)-6-(3-methyl-3-(methylsulfonyl)but-1-yn-1-yl)pyridin-3-yl)-1-(2,2,2-trifluoroethyl)-1H-indazolyl)methylsulfonamido)-1-oxopropan-2-yl)carbamate] | 661 µg/mL (≈ 554 µM) | 3 μM | 100 μM | – | – | – | – | – |
| CN(CC(=O)N(c1nn(CC(F)(F)F)c2c(-c3ccc(C#CC(C)(C)S(C)(=O)=O)nc3[C@H](Cc3cc(F)cc(F)c3)NC(=O)Cn3nc(C(F)(F)F)c4c3C(F)(F)[C@@H]3C[C@H]43)ccc(Cl)c12)S(C)(=O)=O)C(=O)OCOP(=O)(O)O [Compound 37, (phosphonooxy)methyl (2-(N-(4-chloro-7-(2-((S)-1-(2-((3bS,4aR)-5,5-difluoro-3-(trifluoromethyl)-3b,4,4a,5-tetrahydro-111-cyclopropa[3,4]cyclopenta[1,2-c]pyrazol-1-yl)acetamido)-2-(3,5-difluorophenyl)ethyl)-6-(3-methyl-3-(methylsulfonyl)but-1-yn-1-yl)pyridin-3-yl)-1-(2,2,2-trifluoroethyl)-1H-indazol-3-yl)methylsulfonamido)-2-oxoethyl)(methyl)carbamate] | 674 µg/mL (≈ 565 µM) | 1 μM | 79 μM | – | – | – | – | – |
| CC(C)(C#Cc1ccc(-c2ccc(Cl)c3c(N(C(=O)CC4(CN(CC(=O)O)C(=O)OCOP(=O)(O)O)CC4)S(C)(=O)=O)nn(CC(F)(F)F)c23)c([C@H](Cc2cc(F)cc(F)c2)NC(=O)Cn2nc(C(F)(F)F)c3c2C(F)(F)[C@@H]2C[C@H]32)n1)S(C)(=O)=O [Compound 39] | – | 1 μM | 87 μM | 1190 µg/mL (≈ 921 µM) | 3870 µg/mL (≈ 3000 µM) | – | – | – |
| CC(C)(C#Cc1ccc(-c2ccc(Cl)c3c(N(C(=O)Cc4ccccc4OP(=O)(O)O)S(C)(=O)=O)nn(CC(F)(F)F)c23)c([C@H](Cc2cc(F)cc(F)c2)NC(=O)Cn2nc(C(F)(F)F)c3c2C(F)(F)[C@@H]2C[C@H]32)n1)S(C)(=O)=O [Compound 45, 2-(2-(N-(4-chloro-7-(2-((S)-1-(2-((3bS,4aR)-5,5-difluoro-3-(trifluoromethyl)-3b,4,4a,5-tetrahydro-1H-cyclopropa[3,4]cyclopenta[1,2-c]pyrazol-1-yl)acetamido)-2-(3,5-difluorophenyl)ethyl)-6-(3-methyl-3-(methylsulfonyl)but-1-yn-1-yl)pyridin-3-yl)-1-(2,2,2-trifluoroethyl)-1H-indazol-3-yl)methylsulfonamido)-2-oxoethyl)phenyl dihydrogen phosphate] | 456 µg/mL | – | – | – | – | 129 µg/mL | 1/1 μM | 1/1 μM |
| CC(C)(C#Cc1ccc(-c2ccc(Cl)c3c(N(C(=O)Cc4ccc(OP(=O)(O)O)cc4)S(C)(=O)=O)nn(CC(F)(F)F)c23)c([C@H](Cc2cc(F)cc(F)c2)NC(=O)Cn2nc(C(F)(F)F)c3c2C(F)(F)[C@@H]2C[C@H]32)n1)S(C)(=O)=O [Compound 51, 4-(2-(N-(4-chloro-7-(2-((S)-1-(2-((3bS,4aR)-5,5-difluoro (trifluoromethyl)-3b,4,4a,5-tetrahydro-1H-cyclopropa[3,4]cyclopenta[1,2-c]pyrazolyl)acetamido)-2-(3,5-difluorophenyl)ethyl)-6-(3-methyl-3-(methylsulfonyl)but-1-ynyl)pyridin-3-yl)-1-(2,2,2-trifluoroethyl)-1H-indazol-3-yl)methylsulfonamido)oxoethyl)phenyl dihydrogen phosphate] | 1750 µg/mL | – | – | – | – | 1450 µg/mL | 1/100 μM | 1/100 μM |
| CN(C(=O)N(c1nn(CC(F)(F)F)c2c(-c3ccc(C#CC(C)(C)S(C)(=O)=O)nc3[C@H](Cc3cc(F)cc(F)c3)NC(=O)Cn3nc(C(F)(F)F)c4c3C(F)(F)[C@@H]3C[C@H]43)ccc(Cl)c12)S(C)(=O)=O)c1ccccc1OP(=O)(O)O [Compound 54, 2-(3-(4-chloro-7-(2-((S)-1-(2-((3bS,4aR)-5,5-difluoro-3-(trifluoromethyl)-3b,4,4a,5-tetrahydro-1H-cyclopropa[3,4]cyclopenta[1,2-c]pyrazol-1-yl)acetamido)-2-(3,5-difluorophenyl)ethyl)-6-(3-methyl-3-(methylsulfonyl)but-1-yn-1-yl)pyridin-3-yl)-1-(2,2,2-trifluoroethyl)-1H-indazol-3-yl)-1-methyl-3-(methylsulfonyl)ureido)phenyl dihydrogen phosphate] | 1090 µg/mL | – | – | – | – | 561 µg/mL | 1/63 μM | 1/63 μM |
| Cc1cc(CP(=O)(O)O)cc(OP(=O)(O)O)c1C(C)(C)CC(=O)N(c1nn(CC(F)(F)F)c2c(-c3ccc(C#CC(C)(C)S(C)(=O)=O)nc3[C@H](Cc3cc(F)cc(F)c3)NC(=O)Cn3nc(C(F)(F)F)c4c3C(F)(F)[C@@H]3C[C@H]43)ccc(Cl)c12)S(C)(=O)=O [Compound 56, (4-(4-(N-(4-chloro-7-(2-((S)-1-(2-((3bS,4aR)-5,5-difluoro-3-(trifluoromethyl)-3b,4,4a,5-tetrahydro-1H-cyclopropa[3,4]cyclopenta[1,2-c]pyrazolyl)acetamido)-2-(3,5-difluorophenyl)ethyl)-6-(3-methyl-3-(methylsulfonyl)but-1-ynyl)pyridin-3-yl)-1-(2,2,2-trifluoroethyl)-1H-indazol-3-yl)methylsulfonamido)-2-methyloxobutan-2-yl)-3-methyl-5-(phosphonooxy)benzyl)phosphonic acid] | > 10000 µg/mL | – | – | – | – | – | 1/100 μM | 1/100 μM |
| Cc1cc(P(=O)(O)O)cc(OP(=O)(O)O)c1C(C)(C)CC(=O)N(c1nn(CC(F)(F)F)c2c(-c3ccc(C#CC(C)(C)S(C)(=O)=O)nc3[C@H](Cc3cc(F)cc(F)c3)NC(=O)Cn3nc(C(F)(F)F)c4c3C(F)(F)[C@@H]3C[C@H]43)ccc(Cl)c12)S(C)(=O)=O [Compound 57, (4-(4-(N-(4-Chloro-7-(2-((S)-1-(2-((3bS,4aR)-5,5-difluoro-3-(trifluoromethyl)-3b,4,4a,5-tetrahydro-111-cyclopropa[3,4]cyclopenta[1,2-c]pyrazol-1-yl)acetamido)-2-(3,5-difluorophenyl)ethyl)-6-(3-methyl-3-(methylsulfonyl)but-1-yn-1-yl)pyridin-3-yl)-1-(2,2,2-trifluoroethyl)-1H-indazol-3-yl)methylsulfonamido)-2-methyl-4-oxobutan-2-yl)-3-methyl-5-(phosphonooxy)phenyl)phosphonic acid] | 7300 µg/mL (≈ 5540 µM) | – | – | – | – | – | 1/100 μM | 1/100 μM |
